Data as given in patent publication US6221865A, “Inhibitors of protein isoprenyl transferases” (priority 1998, dated 2001).
Where a name gives a salt, the structure may show the parent alone.

Target: T1, protein farnesyltransferase (Rattus norvegicus, UniProt Q02293+Q04631)
T1 construct: The enzyme is purified according to Reiss, Y., et al., Cell, 62: 81-88 (1990), utilizing steps one through three; from tissue; host or cells: rat brain
Test: Inhibition of farnesyltransferase (scintillation proximity assay, rat brain enzyme, biotin-K Ras B fragment substrate)
Assay type: biochemical
Conditions: 1 × 10^-6 M (Table 2); for inhibition at 1 µM: read-out: % inhibition of farnesyltransferase at 1 × 10^-6 M
Description: The ability of the compounds of the invention to inhibit protein farnesyltransferase or protein geranylgeranyltransferase can be measured according to the method of Moores, et al., J. Biol. Chem. 266: 14603 (1991) or the method of Vogt, et al., J. Biol. Chem. 270:660-664 (1995). In addition, procedures for determination of the inhibition of farnesylation of the oncogene protein Ras are described by Goldstein, et al., J. Biol. Chem., 266:15575-15578 (1991) and by Singh in U.S. Pat. No. 5,245,061.
In addition, in vitro inhibition of protein farnesyltransferase may be measured by the following procedure. Rat brain protein farnesyltransferase activity is measured using an Amersham Life Science commercial scintillation proximity assay kit and substituting a biotin-K Ras B fragment (biotin-[…]Ble-Met-CO2 H), […] final concentration, for the biotin-lamin substrate provided by Amersham. The enzyme is purified according to Reiss, Y., et al., Cell, 62: 81-88 (1990), utilizing steps one through three.
The % inhibition of protein farnesyltransferase was determined for representative compounds of the invention.

T1 sequence (Q02293 whole entry, one chain of several): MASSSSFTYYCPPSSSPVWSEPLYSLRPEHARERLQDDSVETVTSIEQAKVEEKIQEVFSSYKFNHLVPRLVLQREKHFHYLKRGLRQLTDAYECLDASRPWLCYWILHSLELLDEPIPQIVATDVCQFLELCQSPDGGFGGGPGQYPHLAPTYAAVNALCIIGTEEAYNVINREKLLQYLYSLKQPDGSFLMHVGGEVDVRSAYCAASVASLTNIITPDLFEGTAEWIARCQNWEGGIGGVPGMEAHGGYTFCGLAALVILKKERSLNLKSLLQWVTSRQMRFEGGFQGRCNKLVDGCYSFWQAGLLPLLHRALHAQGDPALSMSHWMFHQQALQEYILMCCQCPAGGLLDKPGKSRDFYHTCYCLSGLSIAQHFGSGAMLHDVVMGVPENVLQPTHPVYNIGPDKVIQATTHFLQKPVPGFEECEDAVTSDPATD

SMILES	inhibition at 1 µM [%]	% inhibition of farnesyltransferase at 1 × 10^-6 M [%]
CSCC[C@H](NC(=O)c1ccc(C=CCc2ccccc2)cc1-c1ccccc1C)C(=O)O (mixture of isomers) [Example 469, N-[4-(3-phenylprop-1-enyl)-2-(2-methylphenyl)benzoyl]methionine (1:1 mixture of olefin isomers)]	92	–
CSCC[C@H](NC(=O)c1ccc(C=CCc2ccc3ccccc3c2)cc1-c1ccccc1C)C(=O)O (mixture of isomers) [Example 496, N-[4-(3-naphth-2-ylprop-1-enyl)-2-(2-methylphenyl)benzoyl]methionine lithium salt (1:1 mixture of olefin isomers)]	93	–
CSCCC(NC(=O)c1ccc(NC(=O)Cc2cscn2)cc1-c1ccccc1)C(=O)O (stereo not shown) [Example 162]	–	12
CSCC[C@H](NC(=O)c1ccc(NC(=O)Cc2nccs2)cc1-c1ccccc1)C(=O)O [Example 163]	–	18
COC(=O)[C@H](CCSC)NC(=O)c1ccc(NC(=O)[C@@H]2CSCN2)cc1-c1ccccc1.Cl [Example 164]	–	92
CSCC[C@H](NC(=O)c1ccc(NC(=O)[C@@H]2CSCN2)cc1-c1ccccc1)C(=O)O [Example 165]	–	74
CSCC[C@H](NC(=O)c1ccc(NC[C@@H]2CSCN2)cc1-c1ccccc1)C(=O)O.Cl [Example 166]	–	97
CSCC[C@H](NC(=O)c1ccc(NC(=O)C2CCC(=O)N2)cc1-c1ccccc1)C(=O)O (stereo partly shown) [Example 202]	–	31
CSCCC(NC(=O)c1ccc(NC(=O)c2cncnc2)cc1-c1ccccc1)C(=O)O (stereo not shown) [Example 219]	–	56
CSCC[C@H](NC(=O)c1ccc(N2CC(=O)NNC2=O)cc1-c1ccccc1)C(=O)O [Example 224]	41	–
CSCCC(NC(=O)c1ccc(NC(=O)C2CCCNC2)cc1-c1ccccc1)C(=O)O (stereo not shown) [Example 231]	–	50
CSCC[C@H](NC(=O)c1ccc(COCc2cccs2)cc1-c1ccccc1C)C(=O)[O-].[Li+] [Example 273]	–	96
CSCC[C@H](NC(=O)c1ccc(COCc2ccsc2)cc1-c1ccccc1C)C(=O)[O-].[Li+] [Example 274]	–	94
CSCC[C@H](NC(=O)c1ccc(NC(=O)C2=C(C(F)(F)F)C=CNC2)cc1-c1ccccc1)C(=O)O [Example 283]	–	98
CSCC[C@H](NC(=O)c1ccc(NCC2CNCCN2)cc1-c1ccccc1)C(=O)O (stereo partly shown) [Example 286]	–	84
CSCC[C@H](NC(=O)c1ccc(COCC2CCOC2)cc1-c1ccccc1)C(=O)O (stereo partly shown) [Example 287]	–	24
CSCC[C@H](NC(=O)c1ccc(COCC2CCCO2)cc1-c1ccccc1)C(=O)O (stereo partly shown) [Example 288]	–	22
CSCC[C@H](NC(=O)c1ccc(CN2CCN(C)CC2)cc1-c1ccccc1)C(=O)O [Example 289, [4-(4-methylpiperazinylmethyl)-2-phenylbenzoyl]methionine]	23	–
CSCC[C@H](NC(=O)c1ccc(CN2CCNCC2)cc1-c1ccccc1)C(=O)O [Example 290, (4-piperazinylmethyl-2-phenylbenzoyl)methionine]	74	–
CSCC[C@H](NC(=O)c1ccc(CN2CCC(O)C2)cc1-c1ccccc1)C(=O)O (stereo partly shown) [Example 291]	23	–
CCCCON(CCC1CCCCC1)Cc1ccc(C(=O)N[C@@H](CCS(C)(=O)=O)C(=O)O)c(-c2ccccc2C)c1 [Example 298]	43	–
CCCCN(C)N(CCC1CCCCC1)Cc1ccc(C(=O)N[C@@H](CCSC)C(=O)O)c(-c2ccccc2C)c1 [Example 299]	94	–
CCCCN(C)N(CCC1CCCCC1)Cc1ccc(C(=O)N[C@@H](CCS(C)(=O)=O)C(=O)O)c(-c2ccccc2C)c1 [Example 300]	22	–
CSCC[C@H](NC(=O)c1ccc(CN(C)C(CC2CCCCC2)C(=O)N2CCCCC2)cc1-c1ccccc1C)C(=O)O (stereo partly shown) [Example 301]	98	–
CSCC[C@H](NC(=O)c1ccc(CN(C)C(CC2CCCCC2)C(=O)N2CCOCC2)cc1-c1ccccc1C)C(=O)O (stereo partly shown) [Example 302]	31	–
CSCC[C@H](NC(=O)c1ccc(CNC(C)(C)Cc2ccccc2)cc1-c1ccccc1C)C(=O)O [Example 307]	82	–
CSCC[C@H](NC(=O)c1ccc(CNC(C)(C)CC2CCCCC2)cc1-c1ccccc1C)C(=O)O [Example 308]	62	–
CSCC[C@H](NC(=O)c1ccc(CN(C)C(C)(C)Cc2ccccc2)cc1-c1ccccc1C)C(=O)O [Example 309]	98	–

SMILES	inhibition at 1 µM [%]	% inhibition of farnesyltransferase at 1 × 10^-6 M [%]
Cc1ccccc1-c1cc(CNC(C)(C)Cc2ccccc2)ccc1C(=O)N[C@@H](CCS(C)(=O)=O)C(=O)O [Example 311]	97	–
Cc1ccccc1-c1cc(CN(C)C(C)(C)Cc2ccccc2)ccc1C(=O)N[C@@H](CCS(C)(=O)=O)C(=O)O [Example 313]	94	–
Cc1ccccc1-c1cc(CN(C)C(C)(C)CC2CCCCC2)ccc1C(=O)N[C@@H](CCS(C)(=O)=O)C(=O)O [Example 314]	97	–
CSCC[C@H](NC(=O)c1ccc(CN(C2CC2)C(C)(C)Cc2ccccc2)cc1-c1ccccc1C)C(=O)O [Example 315]	93	–
CSCC[C@H](NC(=O)c1ccc(CN(C2CC2)C(C)(C)CC2CCCCC2)cc1-c1ccccc1C)C(=O)O [Example 316]	63	–
CSCC[C@H](NC(=O)c1ccc(CN(C(C)C)C(C)(C)Cc2ccccc2)cc1-c1ccccc1C)C(=O)O [Example 317]	54	–
CSCC[C@H](NC(=O)c1ccc(CN(C(C)C)C(C)(C)CC2CCCCC2)cc1-c1ccccc1C)C(=O)O [Example 318]	98	–
Cc1ccccc1-c1cc(CN(C2CC2)C(C)(C)Cc2ccccc2)ccc1C(=O)N[C@@H](CCS(C)(=O)=O)C(=O)O [Example 319]	98	–
Cc1ccccc1-c1cc(CN(C2CC2)C(C)(C)CC2CCCCC2)ccc1C(=O)N[C@@H](CCS(C)(=O)=O)C(=O)O [Example 320]	93	–
Cc1ccccc1-c1cc(CN(C(C)C)C(C)(C)Cc2ccccc2)ccc1C(=O)N[C@@H](CCS(C)(=O)=O)C(=O)O [Example 321]	90	–
Cc1ccccc1-c1cc(CN(C(C)C)C(C)(C)CC2CCCCC2)ccc1C(=O)N[C@@H](CCS(C)(=O)=O)C(=O)O [Example 322]	98	–
CSCC[C@H](NC(=O)c1ccc(CN(C2CC2)C2(Cc3ccccc3)CC2)cc1-c1ccccc1C)C(=O)O [Example 323]	98	–
CSCC[C@H](NC(=O)c1ccc(CN(C2CC2)C2(CC3CCCCC3)CC2)cc1-c1ccccc1C)C(=O)O [Example 324]	98	–
CSCC[C@H](NC(=O)c1ccc(CN(C(C)C)C2(Cc3ccccc3)CC2)cc1-c1ccccc1C)C(=O)O [Example 325]	99	–
CSCC[C@H](NC(=O)c1ccc(CN(C(C)C)C2(CC3CCCCC3)CC2)cc1-c1ccccc1C)C(=O)O [Example 326]	91	–
Cc1ccccc1-c1cc(CN(C(C)C)C2(Cc3ccccc3)CC2)ccc1C(=O)N[C@@H](CCS(C)(=O)=O)C(=O)O [Example 327]	97	–
CSCC[C@H](NC(=O)c1ccc(CN(C2CC2)C2(Cc3ccccc3)CCC2)cc1-c1ccccc1C)C(=O)O [Example 329]	98	–
CSCC[C@H](NC(=O)c1ccc(CN(C2CC2)C2(CC3CCCCC3)CCC2)cc1-c1ccccc1C)C(=O)O [Example 330]	98	–
CSCC[C@H](NC(=O)c1ccc(CN(C(C)C)C2(Cc3ccccc3)CCC2)cc1-c1ccccc1C)C(=O)O [Example 331]	98	–
CSCC[C@H](NC(=O)c1ccc(CN(C(C)C)C2(CC3CCCCC3)CCC2)cc1-c1ccccc1C)C(=O)O [Example 332]	26	–
Cc1ccccc1-c1cc(CN(C2CC2)C2(Cc3ccccc3)CCC2)ccc1C(=O)N[C@@H](CCS(C)(=O)=O)C(=O)O [Example 333]	99	–
Cc1ccccc1-c1cc(CN(C2CC2)C2(CC3CCCCC3)CCC2)ccc1C(=O)N[C@@H](CCS(C)(=O)=O)C(=O)O [Example 334]	93	–
CSCC[C@H](NC(=O)c1ccc(CN(C(C)C)C2(Cc3ccccc3)CCCC2)cc1-c1ccccc1C)C(=O)O [Example 343]	72	–
CSCC[C@H](NC(=O)c1ccc(CN(C(C)C)C2(CC3CCCCC3)CCCC2)cc1-c1ccccc1C)C(=O)O [Example 344]	95	–
Cc1ccccc1-c1cc(CN(C2CC2)C2(Cc3ccccc3)CCCC2)ccc1C(=O)N[C@@H](CCS(C)(=O)=O)C(=O)O [Example 345]	91	–
Cc1ccccc1-c1cc(CN(C2CC2)C2(CC3CCCCC3)CCCC2)ccc1C(=O)N[C@@H](CCS(C)(=O)=O)C(=O)O [Example 346]	98	–
CSCC[C@H](NC(=O)c1ccc(CN2C(=O)OC[C@@H]2CC2CCCCC2)cc1-c1ccccc1C)C(=O)O [Example 349, [4-(5-cyclohexylmethyloxazolid-2-on-1-ylmethyl)-2-(2-methylphenyl)benzoyl]methionine]	99	–
